# Measured values: patent US10370642B2, “Hematopoietic progenitor cell populations having affinity for E-selectin / L-selectin” (priority 2000, dated 2019)
# Columns and labels:
# L-selectin [1] = experiment: Blot rolling assay with L-selectin-expressing lymphocytes; type: cell-based; conditions: 2.3 dynes/cm^2
# Method: L-selectin-expressing lymphocytes were isolated as previously described (Oxley, S. M. & Sackstein, R. (1994). Blood. 84:3299-3306; Sackstein, R., Fu, L. and Allen, K. L. (1997) Blood. 89:2773-2781), washed twice in HBSS and suspended at 2×10^7/ml in HBSS/10 mM HEPES/2mMCaCl2 (H/H/Ca^++)/10% glycerol. Cell lysate material is separated by SDS-PAGE and transferred to PVDF under standard blotting conditions. Western blots of KG1a membrane preparations stained with HECA-452, A3D8 or Hermes-1 were rendered transparent by incubating them in H/H/Ca^++/10% glycerol. To study L-selectin-mediated adhesive interactions, the blots were placed in the parallel plate flow chamber and lymphocytes were perfused into the chamber at a shear force of 2.3 dynes/cm^2 and cellular adhesive interactions are observed by video microscopy and analyzed in real time.
# The number of lymphocytes rolling on and between each immunostained banding region was quantified from five independent fields under 200× magnification on the video monitor using molecular weight markers as guides to help align and visualize the proteins of interest. A minimum of 3 experiments were performed, and results were expressed as the mean of cell rolling/field.
# E-selectin = biological target: T1, E-selectin (Homo sapiens, UniProt P16581); experiment: Blot rolling assay with CHO-E cells; type: cell-based; conditions: immunoprecipitated CD44 on Western blot; 3.8 dynes/cm^2
# T1 construct: stably transfected with full-length cDNA encoding human E-selectin; expressed in transfected cells
# T1 sequence (P16581 22-610): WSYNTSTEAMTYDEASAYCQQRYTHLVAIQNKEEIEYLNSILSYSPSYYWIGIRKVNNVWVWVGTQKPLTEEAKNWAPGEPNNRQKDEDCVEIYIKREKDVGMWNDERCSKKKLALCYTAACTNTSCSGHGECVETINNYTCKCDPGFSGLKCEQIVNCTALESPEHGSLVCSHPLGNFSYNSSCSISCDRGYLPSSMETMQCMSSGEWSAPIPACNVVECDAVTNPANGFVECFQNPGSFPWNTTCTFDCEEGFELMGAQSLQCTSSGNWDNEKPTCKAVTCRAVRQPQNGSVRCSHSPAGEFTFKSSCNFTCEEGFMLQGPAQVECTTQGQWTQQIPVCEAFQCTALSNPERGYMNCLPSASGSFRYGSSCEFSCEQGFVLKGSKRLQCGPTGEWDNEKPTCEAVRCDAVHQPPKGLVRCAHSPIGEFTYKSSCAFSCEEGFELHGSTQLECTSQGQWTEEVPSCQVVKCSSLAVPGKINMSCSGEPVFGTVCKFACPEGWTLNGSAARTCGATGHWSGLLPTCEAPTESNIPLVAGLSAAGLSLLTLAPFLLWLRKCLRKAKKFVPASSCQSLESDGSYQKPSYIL
# Method: The blot rolling assay was performed as previously described (Dimitroff et al., 2000). Briefly, CHO-E, CHO—P or CHO-Mock transfectants were isolated as described above, washed twice in HBSS and suspended at 10^7/ml in HBSS/10 mM HEPES/2mMCaCl2 (H/H/Ca++)/10% glycerol. Western blots of HPC membrane preparations stained with HECA-452 were rendered transparent by incubating them in H/H/Ca++/10% glycerol. The blots were then placed in the parallel-plate flow chamber, and CHO transfectants (2×10^6/ml) were perfused into the chamber. After allowing the cells to come in contact with the blotting membrane, the flow rate was adjusted to exert a shear stress of 3.8 dynes/cm^2. The viscosity of 10% glycerol adhesion assay medium was considered in the calculation of shear stress values. The number of cells rolling on and between each immunostained banding region was quantified under 100× magnification within each field of view on the video monitor using molecular weight markers (Kaleidoscope Molecular Weight Markers, Bio-Rad Lab.; See Blue® from Novex, Inc.) as guides to help align and visualize the apparent molecular weights of the proteins of interest. A minimum of 3 experiments was performed and results were expressed as the mean±SD of cell rolling/field at 100× magnification.
# L-selectin [2] = experiment: Stamper-Woodruff assay, lymphocyte adherence to immunoprecipitated CD44 and PSGL-1; type: cell-based, rat; conditions: equimolar amounts; from 40 to 100 rpm
# L-selectin [3] = biological target: T2, L-selectin (Rattus norvegicus, UniProt P30836); experiment: as above; type: cell-based; conditions: 80 rpm
# T2 construct: L-selectin naturally expressed on leukocytes; endogenous in cells; host or cells: lymphocytes (rat thoracic duct lymphocytes; human PBMC also prepared)
# T2 sequence (P30836 39-372): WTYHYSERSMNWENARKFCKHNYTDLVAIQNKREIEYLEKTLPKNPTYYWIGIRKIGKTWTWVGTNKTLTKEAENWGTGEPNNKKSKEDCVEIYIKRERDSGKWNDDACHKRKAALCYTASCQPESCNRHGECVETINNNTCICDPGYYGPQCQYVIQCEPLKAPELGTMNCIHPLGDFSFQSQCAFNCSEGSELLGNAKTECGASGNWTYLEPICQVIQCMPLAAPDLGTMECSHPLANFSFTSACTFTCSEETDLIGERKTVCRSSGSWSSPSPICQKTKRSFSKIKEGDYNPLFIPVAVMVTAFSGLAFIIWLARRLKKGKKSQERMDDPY
# Method: (§1) These protein spots were then fixed in 3% glutaraldehyde, unreactive aldehyde groups were blocked in 0.2M lysine and slides were kept in RPMI-1640 without NaBicarbonate/2% FBS until ready for testing. Lymphocytes (10^7/ml RPMI-1640 without NaBicarbonate/5% FBS) were overlayed onto these fixed immunoprecipitates and incubated on an orbital shaker at 80 rpm for 30 min. at 4° C. The number of adherent lymphocytes was quantified by light microscopy using an ocular grid under 100× magnification (a minimum of 5 fields/slide, 2 slides/experiment, and 3 separate experiments). Data were presented as the mean number of bound lymphocytes±standard deviation. KG1a CD34 and L-selectin control immunoprecipitates were also tested in this manner. To verify the dependence for sialic acid, glutaraldehyde-fixed spots were treated with Vibrio cholerae neuraminidase (0.1 U/ml RPMI-1640 without NaBicarbonate/2% FBS for lhr at 37° C.).
# (§2) Immunoaffinity purified material (0.75-3 μg/spot) was spotted onto glass slides for analyses in the Stamper-Woodruff assay (See below for assay description). For autoradiographic analysis of immunoprecipitated [^35S]-methionine-radiolabeled CD44 and PSGL-1, immunoprecipitates were spotted onto glass slides, allowed to dry and exposed Kodak BioMax-MR film for 12 h at −80° C. Densitometric analysis (optical density) of the autoradiograms was performed with a Hewlett-Packard Scanj et 5200C scanner and NIH Image processing and analysis program.
# L-selectin [4] = experiment: as above; type: cell-based, rat; conditions: equimolar amounts (0.75 μg CD44, 1 μg PSGL-1); 80 rpm
# Method: as §1, §2
substance,measurement,setting,value
"KG1a CD44: glycoform of CD44 with HECA-452 reactive sialylated, fucosylated N-glycans, immunoprecipitated from KG1a cells with Hermes-1",L-selectin ligand activity (lymphocyte tethering and rolling) in blot rolling assay,L-selectin [1],supported L-selectin ligand interactions
same,E-selectin ligand activity (CHO-E cell rolling) in blot rolling assay,E-selectin,possessed E-selectin ligand activity
same,fold higher lymphocyte adherence compared with PSGL-1,L-selectin [2],5- to 10 fold
same,Mean Number of Bound Lymphocytes,"L-selectin [3]; 0.75 μg/spot (PSGL-1 1 μg/spot), 4° C., 100× mag.",357.8
same,fold higher mean number of lymphocytes bound to CD44 than to PSGL-1,L-selectin [3]; p<0.001,3 fold
same,fold greater lymphocyte binding compared with PSGL-1,L-selectin [4],up to 10 fold
